# According to US20170334899A1, “AMINO-SUBSTITUTED ISOTHIAZOLES” (Bayer Pharma Aktiengesellschaft, priority 2014, published 2017):
# Key:
# Format in all cases: cell-based
# [1] = system: human cervical tumor cell line HeLa (ATCC CCL-2); experiment: SAC-Formation - Nocodazole-Induced Assay; conditions: Homo sapiens, HeLa, 24 h, HeLa cells, nocodazole 0.1 μg/ml together with test compound, decrease of mitotic cells (phospho-histone H3 Ser10)
# Text: (§1) The spindle assembly checkpoint assures the proper segregation of chromosomes during mitosis. Upon entry into mitosis, chromosomes begin to condensate which is accompanied by the phosphorylation of histone H3 on serine 10. Dephosphorylation of histone H3 on serine 10 begins in anaphase and ends at early telophase. Accordingly, phosphorylation of histone H3 on serine 10 can be utilized as a marker of cells in mitosis. Nocodazole is a microtubule destabilizing substance. Paclitaxel is a microtubule stabilizing compound. Thus, nocodazole as well as paclitaxel interfere with microtubule dynamics and mobilize the spindle assembly checkpoint. […] The mitotic breakthrough can be detected by the decrease of cells with phosphorylation of histone H3 on serine 10. This decline is used as a marker to determine the capability of compounds of the present invention to induce a mitotic breakthrough. The typical morphological alteration of nuclei with a prematurely completed mitosis after SAC-inhibition can be monitored via image analysis routines supporting those findings.
# (§2) The nocodazole and paclitaxel variations were used to focus on compounds that are capable of inhibiting a SAC induced by both microtubule destabilization as well as microtubule stabilization. When SAC inducing agents and compounds are given simultaneously inhibitors that effectively block the SAC during formation or abrogation are identified. When cells are incubated with a SAC inducing agent and the SAC interfering compound is given after a defined time, inhibitors are identified that effectively block SAC abrogation.
# (§3) Cultivated cells of the human cervical tumor cell line HeLa (ATCC CCL-2) were plated at a density of 1000 cells/well in a 1536-well microtiter plate in 2 μl PAA Ham's F12 Medium supplemented with 1% (v/v) glutamine, 1% (v/v) penicillin, 1% (v/v) streptomycin and 10% (v/v) fetal calf serum. After incubation overnight at 37° C., 10 μl/well nocodazole at a final concentration of 0.1 μg/ml were added to cells. Test compounds solubilized in dimethyl sulfoxide (DMSO) were added at various concentrations (0 μM, as well as in the range of 0.005 μM-20 μM; the final concentration of the solvent DMSO was 0.5% (v/v)). Cells were incubated for 24 h at 37° C. in the presence of test compounds in combination with nocodazole. Thereafter, cells were fixed in 4% (v/v) paraformaldehyde in phosphate buffered saline (PBS) at 4° C. overnight then permeabilized in 0.1% (v/v) Triton X™ 100 in PBS at room temperature for 20 min and blocked in 0.5% (v/v) bovine serum albumin (BSA) in PBS at room temperature for 15 min. After washing with PBS, 5 μl/well antibody solution (anti-phospho-histone H3 clone 3H10, FITC; Millipore, Cat#16-222; 1:1000 dilution) was added to cells, which were incubated for 2 h at room temperature. Afterwards, cells were washed with PBS and 5 μl/well solution of HOECHST 33342 dye (5 μg/ml) was added to cells and cells were incubated 15 min at room temperature in the dark. Cells were washed twice with PBS then covered with PBS and stored at 4° C. until analysis. Images were acquired with a PERKIN ELMER OPERA™ High-Content Analysis reader. Images were analyzed with image analysis software MetaXpress™ from Molecular devices utilizing the Mitotic Index application module. In this assay both labels HOECHST 33342 and phosphorylated Histone H3 on serine 10 were measured. HOECHST 33342 labels the DNA and is used to count the cell number. The staining of phosphorylated Histone H3 on serine 10 determines the number of mitotic cells. […] Otherwise cells were arrested at G2/M phase of the cell cycle progression. The raw assay data were further analyzed by four-parametric hill equation using Genedata's Assay Analyzer and Condoseo software.
# [2] = system: human cervical tumor cell line HeLa (ATCC CCL-2); experiment: SAC-Formation - Paclitaxel-Induced Assay; conditions: Homo sapiens, HeLa, 24 h, HeLa cells, paclitaxel 0.05 μM, test range 0.005 μM-20 μM, read-out: IC50 [mol/l] SAC-Formation - Paclitaxel-Induced Assay
# Text: as §1, §2
# Cultivated cells of the human cervical tumor cell line HeLa (ATCC CCL-2) were plated at a density of 1000 cells/well in a 1536-well microtiter plate in 2 μl PAA
# as §3, with “Ham's” for “Cultivated cells of the human cervical tumor cell line HeLa (ATCC CCL-2) were plated at a density of 1000 cells/well in a 1536-well microtiter plate in 2 μl PAA Ham's”, “paclitaxel” for “nocodazole”, “0.05 μM” for “0.1 μg/ml”, “μM -20” for “μM-20”, “paclitaxel.” for “nocodazole.”
# HeLa = experiment: Proliferation assay (crystal violet), HeLa; conditions: Homo sapiens, HeLa, 96 h, HeLa cells; 4 days incubation; crystal violet staining; read-out: IC50 inhibition of proliferation, HeLa
# Description: Cultivated tumor cells (cells were ordered from ATCC, except HeLa-MaTu and HeLa-MaTu-ADR, which were ordered from EPO-GmbH, Berlin) were plated at a density of 1000 to 5000 cells/well, depending on the growth rate of the respective cell line, in a 96-well multititer plate in 200 μL of their respective growth medium supplemented 10% fetal calf serum. After 24 hours, the cells of one plate (zero-point plate) were stained with crystal violet (see below), while the medium of the other plates was replaced by fresh culture medium (200 μl), to which the test substances were added in various concentrations (0 μM, as well as in the range of 0.001-10 μM; the final concentration of the solvent dimethyl sulfoxide was 0.5%). The cells were incubated for 4 days in the presence of test substances. Cell proliferation was determined by staining the cells with crystal violet: the cells were fixed by adding 20 μl/measuring point of an 11% glutaric aldehyde solution for 15 minutes at room temperature. After three washing cycles of the fixed cells with water, the plates were dried at room temperature. The cells were stained by adding 100 μl/measuring point of a 0.1% crystal violet solution (pH 3.0). After three washing cycles of the stained cells with water, the plates were dried at room temperature. The dye was dissolved by adding 100 μl/measuring point of a 10% acetic acid solution. Absorbtion was determined by photometry at a wavelength of 595 nm. The change of cell number, in percent, was calculated by normalization of the measured values to the aborbtion values of the zero-point plate (=0%) and the absorbtion of the untreated (0 μm) cells (=100%). The IC50 values were determined by means of a 4 parameter fit.
Structure (SMILES),IC50 [1] [µM],IC50 [2] [µM],IC50 (HeLa) [µM]
"Cc1nsc(Nc2cnc3ccccc3n2)c1C(=O)Nc1cccc(C(=O)N(C)CCc2ccncc2)c1 [Example 82, 3-Methyl-N-(3-{methyl[2-(pyridin-4-yl)ethyl]carbamoyl}-phenyl)-5-(quinoxalin-2-ylamino)-1,2-thiazole-4-carboxamide]",3.7,14,10
"CC(=O)N[C@H]1CCN(C(=O)c2cccc(NC(=O)c3c(C)nsc3Nc3cnc4ccccc4n3)c2)C1 [Example 86, N-(3-{[(3S)-3-(acetylamino)pyrrolidin-1-yl]carbonyl}-phenyl)-3-methyl-5-(quinoxalin-2-ylamino)-1,2-thiazole-4-carboxamide]",3.2,13,10
"Cc1nsc(Nc2cnc3ccccc3n2)c1C(=O)Nc1cccc(C(=O)N2CCN(C(=O)N(C)C)CC2)c1 [Example 89, N,N-Dimethyl-4-[3-({[3-methyl-5-(quinoxalin-2-ylamino)-1,2-thiazol-4-yl]carbonyl}amino)benzoyl]piperazine-1-carboxamide]",2.9,11,10
"Cc1nsc(Nc2cnc3ccccc3n2)c1C(=O)Nc1cccc(C(=O)N2CCN(CCN(C)C)CC2)c1 [Example 90, N-[3-({4-[2-(Dimethylamino)ethyl]piperazin-1-yl}carbonyl)-phenyl]-3-methyl-5-(quinoxalin-2-ylamino)-1,2-thiazole-4-carboxamide]",0.79,17,10
"Cc1nsc(Nc2cnc3ccccc3n2)c1C(=O)Nc1cccc(C(=O)N2CCN(CC(=O)N(C)C)CC2)c1 [Example 92, N-[3-({4-[2-(Dimethylamino)-2-oxoethyl]piperazin-1-yl}-carbonyl)phenyl]-3-methyl-5-(quinoxalin-2-ylamino)-1,2-thiazole-4-carboxamide]",0.94,20,10
"Cc1nsc(Nc2cnc3ccccc3n2)c1C(=O)Nc1cccc(C(=O)N2CCN(CCc3ccccn3)CC2)c1 [Example 94, 3-Methyl-N-[3-({4-[2-(pyridin-2-yl)ethyl]piperazin-1-yl}-carbonyl)phenyl]-5-(quinoxalin-2-ylamino)-1,2-thiazole-4-carboxamide]",0.94,8.4,10

# Compounds with a lower IC50 [1], results first:
IC50 [1] [µM],IC50 [2] [µM],IC50 (HeLa) [µM],Structure (SMILES)
0.05,0.94,10,"Cc1nsc(Nc2cnc3ccccc3n2)c1C(=O)Nc1cccc(C(=O)N2CCCN(C)CC2)c1 [Example 83, 3-Methyl-N-{3-[(4-methyl-1,4-diazepan-1-yl)carbonyl]-phenyl}-5-(quinoxalin-2-ylamino)-1,2-thiazole-4-carboxamide]"
0.096,8.4,10,"CC(=O)Nc1ccccc1NC(=O)c1cccc(NC(=O)c2c(C)nsc2Nc2cnc3ccccc3n2)c1 [Example 84, N-(3-{[2-(Acetylamino)phenyl]carbamoyl}phenyl)-3-methyl-5-(quinoxalin-2-ylamino)-1,2-thiazole-4-carboxamide]"
0.018,0.97,8.9,"COCCCNC(=O)c1cccc(NC(=O)c2c(C)nsc2Nc2cnc3ccccc3n2)c1 [Example 85, N-{3-[(3-Methoxypropyl)carbamoyl]phenyl}-3-methyl-5-(quinoxalin-2-ylamino)-1,2-thiazole-4-carboxamide]"
0.39,1.5,4.5,"Cc1nsc(Nc2cnc3ccccc3n2)c1C(=O)Nc1cccc(C(=O)N2CCN(c3cccc(F)c3)CC2)c1 [Example 87, N-(3-{[4-(3-Fluorophenyl)piperazin-1-yl]carbonyl}phenyl)-3-methyl-5-(quinoxalin-2-ylamino)-1,2-thiazole-4-carboxamide]"
0.031,0.48,10,"Cc1nsc(Nc2cnc3ccccc3n2)c1C(=O)Nc1cccc(C(=O)N2CCN(C(=O)c3ccccc3)CC2)c1 [Example 88, N-{3-[(4-Benzoylpiperazin-1-yl)carbonyl]phenyl}-3-methyl-5-(quinoxalin-2-ylamino)-1,2-thiazole-4-carboxamide]"
0.042,0.23,10,"COCCN1CCN(C(=O)c2cccc(NC(=O)c3c(C)nsc3Nc3cnc4ccccc4n3)c2)CC1 [Example 91, N-(3-{[4-(2-Methoxyethyl)piperazin-1-yl]carbonyl}phenyl)-3-methyl-5-(quinoxalin-2-ylamino)-1,2-thiazole-4-carboxamide]"
0.71,2.7,9.9,"Cc1nsc(Nc2cnc3ccccc3n2)c1C(=O)Nc1cccc(C(=O)N2CCN(Cc3ccc(F)cc3)CC2)c1 [Example 93, N-(3-{[4-(4-Fluorobenzyl)piperazin-1-yl]carbonyl}phenyl)-3-methyl-5-(quinoxalin-2-ylamino)-1,2-thiazole-4-carboxamide]"
